{"source": "the supplement of paper PMC7661543", "note": "± gives the standard deviation of the averaged measurements."}
{"test_system": "HCC-38", "test": "relative cell number vs DMSO control (72 h) (% of DMSO); higher = less growth inhibition (more cells)", "conditions": "sgRNA knockout: sgNT, 10000 nM", "description": "(§1)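 QMAP-Seq: a pool of 5 breast cancer cell lines (ZR-75-1, SKBR3, HCC-38, MDA-MB-231, BT-20), each carrying 12 doxycycline-inducible Cas9 sgRNA perturbations (11 knockouts plus non-targeting sgNT), was treated with compounds for 72 h at four 10-fold doses (10 nM-10 uM or 1 nM-1 uM range). Barcodes were amplified and sequenced, and cell number was interpolated from 293T spike-in standard curves. The result is expressed as % of the median of DMSO wells. Two biological replicates.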"}
{"compound": "COc1cc(/C=C/C(=O)CC(=O)/C=C/c2ccc(O)c(OC)c2)ccc1O", "note": "[Curcumin]", "relative cell number": "85.5 ± 21"}
{"compound": "Nc1nc(OCc2cc(Br)cs2)c2[nH]cnc2n1", "note": "[Lomeguatrib]", "relative cell number": "81.9 ± 8.3"}
{"compound": "C=C(c1ccc(C(=O)O)cc1)c1cc2c(cc1C)C(C)(C)CCC2(C)C", "note": "[Bexarotene]", "relative cell number": "108 ± 8.4"}
{"compound": "Clc1ccc(C2(c3ccc(-c4cn[nH]c4)cc3)CCNCC2)cc1", "note": "[AT7867]", "relative cell number": "50.5 ± 2.3"}
{"compound": "CS(=O)(=O)c1cccc(CNc2nc(Nc3ccc4c(c3)CCC(=O)N4)ncc2C(F)(F)F)c1", "relative cell number": "50.5 ± 4.3"}
{"compound": "N#Cc1ccc(COC[C@H]2O[C@@H](n3c(NCc4ccc(Cl)c(Cl)c4)nc4c(N)ncnc43)[C@H](O)[C@@H]2O)cc1", "relative cell number": "93.9 ± 15"}
{"compound": "CN(Cc1cnc2nc(N)nc(N)c2n1)c1ccc(C(=O)N[C@@H](CCC(=O)O)C(=O)O)cc1", "note": "[Methotrexate]", "relative cell number": "35.2 ± 0.52"}
{"compound": "CC(C)CC(=O)Nc1n[nH]c2c1CN(C(=O)C1CCN(C)CC1)C2(C)C", "relative cell number": "20.3 ± 0.83"}
{"compound": "CCCc1nn(C)c2c(=O)[nH]c(-c3cc(S(=O)(=O)N4CCN(C)CC4)ccc3OCC)nc12", "note": "[Sildenafil]", "relative cell number": "124 ± 18"}
{"compound": "O=C1CCC(N2C(=O)c3ccccc3C2=O)C(=O)N1", "note": "(stereo not drawn) [Thalidomide]", "relative cell number": "115 ± 10"}
{"compound": "CC(C)(C(=O)NCC(F)(F)C(F)(F)F)C(=O)N[C@@H]1C(=O)Nc2ccccc2-c2ccccc21", "relative cell number": "109 ± 13"}
{"compound": "CC[C@@]1(O)C(=O)OCc2c1cc1n(c2=O)Cc2cc3c(CN(C)C)c(O)ccc3nc2-1", "note": "[Topotecan]", "relative cell number": "8.742 ± 0.069"}
{"compound": "C=CC(=O)Nc1cc2c(Nc3ccc(F)c(Cl)c3)ncnc2cc1OCCCN1CCOCC1", "note": "[Canertinib]", "relative cell number": "9.97 ± 5"}
{"test_system": "MDA-MB-231", "test": "relative cell number vs DMSO control (72 h) (% of DMSO); higher = less growth inhibition (more cells)", "conditions": "sgRNA knockout: sgNT, 1 nM", "description": "as §1"}
{"compound": "CC(C)C[C@H](NC(=O)[C@H](Cc1ccccc1)NC(=O)c1cnccn1)B(O)O", "note": "[Bortezomib]", "relative cell number": "86.7 ± 9.3"}
{"test_system": "MDA-MB-231", "test": "relative cell number vs DMSO control (72 h) (% of DMSO); higher = less growth inhibition (more cells)", "conditions": "sgRNA knockout: sgNT, 10 nM", "description": "as §1"}
{"compound": "FC(F)c1nc2ccccc2n1-c1nc(N2CCOCC2)nc(N2CCOCC2)n1", "note": "[ZSTK474]", "relative cell number": "92.9 ± 15"}
{"compound": "Cc1nc(Nc2ncc(C(=O)Nc3c(C)cccc3Cl)s2)cc(N2CCN(CCO)CC2)n1", "note": "[Dasatinib]", "relative cell number": "100 ± 5.3"}
{"compound": "CN/C(=N\\CCSCc1nc[nH]c1C)NC#N", "note": "[Cimetidine]", "relative cell number": "103 ± 22"}
{"compound": "CC(C)C[C@H](NC(=O)[C@H](Cc1ccccc1)NC(=O)c1cnccn1)B(O)O", "note": "[Bortezomib]", "relative cell number": "65.2 ± 19"}
{"compound": "COc1cc(CCc2cc(NC(=O)c3ccc(N4CC(C)NC(C)C4)cc3)n[nH]2)cc(OC)c1", "note": "(stereo not drawn) [AZD4547]", "relative cell number": "79.2 ± 13"}
{"compound": "CC(C)(C)c1ccc(S(=O)(=O)NCc2ccc(C(=O)Nc3cccnc3)cc2)cc1", "note": "[STF31]", "relative cell number": "110 ± 16"}
{"compound": "CCC[C@H](NC(=O)/C(C#N)=C/c1cccc(Br)n1)c1ccccc1", "note": "[WP1130]", "relative cell number": "100 ± 26"}
{"compound": "O=[N+]([O-])c1ccc(O)c2ncccc12", "note": "[Nitroxoline]", "relative cell number": "54.2 ± 9.2"}
{"compound": "O=C1c2c(O)ccc(O)c2C(=O)c2c(NCCNCCO)ccc(NCCNCCO)c21", "note": "[Mitoxantrone]", "relative cell number": "20.8 ± 7.3"}
{"compound": "N[C@@H](CC(=O)N1CCn2c(nnc2C(F)(F)F)C1)Cc1cc(F)c(F)cc1F", "note": "[Sitagliptin]", "relative cell number": "114 ± 63"}
{"compound": "CC(C)[C@H](O)C(=O)N[C@@H](C)C(=O)N[C@@H]1C(=O)N(C)CCc2ccccc21", "note": "[Semagacestat]", "relative cell number": "126 ± 5.3"}
{"compound": "C=C1C(=O)O[C@H]2[C@H]1CC/C(C)=C/CC[C@@]1(C)O[C@@H]21", "note": "[Parthenolide]", "relative cell number": "130 ± 77"}
{"compound": "COc1cc(/C=C/C(=O)CC(=O)/C=C/c2ccc(O)c(OC)c2)ccc1O", "note": "[Curcumin]", "relative cell number": "91.8 ± 29"}
{"compound": "Nc1nc(OCc2cc(Br)cs2)c2[nH]cnc2n1", "note": "[Lomeguatrib]", "relative cell number": "117 ± 22"}
{"compound": "C=C(c1ccc(C(=O)O)cc1)c1cc2c(cc1C)C(C)(C)CCC2(C)C", "note": "[Bexarotene]", "relative cell number": "146 ± 83"}
{"compound": "Clc1ccc(C2(c3ccc(-c4cn[nH]c4)cc3)CCNCC2)cc1", "note": "[AT7867]", "relative cell number": "59.5 ± 17"}
{"compound": "CS(=O)(=O)c1cccc(CNc2nc(Nc3ccc4c(c3)CCC(=O)N4)ncc2C(F)(F)F)c1", "relative cell number": "122 ± 34"}
{"compound": "N#Cc1ccc(COC[C@H]2O[C@@H](n3c(NCc4ccc(Cl)c(Cl)c4)nc4c(N)ncnc43)[C@H](O)[C@@H]2O)cc1", "relative cell number": "83.77 ± 0.66"}
{"compound": "CN(Cc1cnc2nc(N)nc(N)c2n1)c1ccc(C(=O)N[C@@H](CCC(=O)O)C(=O)O)cc1", "note": "[Methotrexate]", "relative cell number": "97.5 ± 4.3"}
{"compound": "CC(C)CC(=O)Nc1n[nH]c2c1CN(C(=O)C1CCN(C)CC1)C2(C)C", "relative cell number": "112 ± 3.1"}
{"compound": "CCCc1nn(C)c2c(=O)[nH]c(-c3cc(S(=O)(=O)N4CCN(C)CC4)ccc3OCC)nc12", "note": "[Sildenafil]", "relative cell number": "114 ± 8.2"}
{"compound": "O=C1CCC(N2C(=O)c3ccccc3C2=O)C(=O)N1", "note": "(stereo not drawn) [Thalidomide]", "relative cell number": "128 ± 37"}
{"compound": "CC(C)(C(=O)NCC(F)(F)C(F)(F)F)C(=O)N[C@@H]1C(=O)Nc2ccccc2-c2ccccc21", "relative cell number": "85.7 ± 7.5"}
{"compound": "CC[C@@]1(O)C(=O)OCc2c1cc1n(c2=O)Cc2cc3c(CN(C)C)c(O)ccc3nc2-1", "note": "[Topotecan]", "relative cell number": "85.1 ± 59"}
{"compound": "C=CC(=O)Nc1cc2c(Nc3ccc(F)c(Cl)c3)ncnc2cc1OCCCN1CCOCC1", "note": "[Canertinib]", "relative cell number": "87.7 ± 26"}
{"test_system": "MDA-MB-231", "test": "relative cell number vs DMSO control (72 h) (% of DMSO); higher = less growth inhibition (more cells)", "conditions": "sgRNA knockout: sgNT, 100 nM", "description": "as §1"}
{"compound": "FC(F)c1nc2ccccc2n1-c1nc(N2CCOCC2)nc(N2CCOCC2)n1", "note": "[ZSTK474]", "relative cell number": "89.6 ± 34"}
{"compound": "Cc1nc(Nc2ncc(C(=O)Nc3c(C)cccc3Cl)s2)cc(N2CCN(CCO)CC2)n1", "note": "[Dasatinib]", "relative cell number": "53.1 ± 6.1"}
{"compound": "CN/C(=N\\CCSCc1nc[nH]c1C)NC#N", "note": "[Cimetidine]", "relative cell number": "106 ± 46"}
{"compound": "CC(C)C[C@H](NC(=O)[C@H](Cc1ccccc1)NC(=O)c1cnccn1)B(O)O", "note": "[Bortezomib]", "relative cell number": "6.68 ± 5"}
{"compound": "COc1cc(CCc2cc(NC(=O)c3ccc(N4CC(C)NC(C)C4)cc3)n[nH]2)cc(OC)c1", "note": "(stereo not drawn) [AZD4547]", "relative cell number": "100.2 ± 0.6"}
{"compound": "CC(C)(C)c1ccc(S(=O)(=O)NCc2ccc(C(=O)Nc3cccnc3)cc2)cc1", "note": "[STF31]", "relative cell number": "93.4 ± 15"}
{"compound": "CCC[C@H](NC(=O)/C(C#N)=C/c1cccc(Br)n1)c1ccccc1", "note": "[WP1130]", "relative cell number": "87.3 ± 10"}
{"compound": "O=[N+]([O-])c1ccc(O)c2ncccc12", "note": "[Nitroxoline]", "relative cell number": "103 ± 22"}
{"compound": "O=C1c2c(O)ccc(O)c2C(=O)c2c(NCCNCCO)ccc(NCCNCCO)c21", "note": "[Mitoxantrone]", "relative cell number": "17.3 ± 0.44"}
{"compound": "N[C@@H](CC(=O)N1CCn2c(nnc2C(F)(F)F)C1)Cc1cc(F)c(F)cc1F", "note": "[Sitagliptin]", "relative cell number": "86.6 ± 14"}
{"compound": "CC(C)[C@H](O)C(=O)N[C@@H](C)C(=O)N[C@@H]1C(=O)N(C)CCc2ccccc21", "note": "[Semagacestat]", "relative cell number": "83.5 ± 15"}
{"compound": "C=C1C(=O)O[C@H]2[C@H]1CC/C(C)=C/CC[C@@]1(C)O[C@@H]21", "note": "[Parthenolide]", "relative cell number": "123 ± 43"}
{"compound": "COc1cc(/C=C/C(=O)CC(=O)/C=C/c2ccc(O)c(OC)c2)ccc1O", "note": "[Curcumin]", "relative cell number": "136 ± 59"}
{"compound": "Nc1nc(OCc2cc(Br)cs2)c2[nH]cnc2n1", "note": "[Lomeguatrib]", "relative cell number": "125 ± 8.7"}
{"compound": "C=C(c1ccc(C(=O)O)cc1)c1cc2c(cc1C)C(C)(C)CCC2(C)C", "note": "[Bexarotene]", "relative cell number": "73.6 ± 3.8"}
{"compound": "Clc1ccc(C2(c3ccc(-c4cn[nH]c4)cc3)CCNCC2)cc1", "note": "[AT7867]", "relative cell number": "84.9 ± 1.7"}
{"compound": "CS(=O)(=O)c1cccc(CNc2nc(Nc3ccc4c(c3)CCC(=O)N4)ncc2C(F)(F)F)c1", "relative cell number": "123.1 ± 0.038"}
{"compound": "N#Cc1ccc(COC[C@H]2O[C@@H](n3c(NCc4ccc(Cl)c(Cl)c4)nc4c(N)ncnc43)[C@H](O)[C@@H]2O)cc1", "relative cell number": "98.3 ± 7"}
{"compound": "CN(Cc1cnc2nc(N)nc(N)c2n1)c1ccc(C(=O)N[C@@H](CCC(=O)O)C(=O)O)cc1", "note": "[Methotrexate]", "relative cell number": "101 ± 17"}
{"compound": "CC(C)CC(=O)Nc1n[nH]c2c1CN(C(=O)C1CCN(C)CC1)C2(C)C", "relative cell number": "59.02 ± 0.15"}
{"compound": "CCCc1nn(C)c2c(=O)[nH]c(-c3cc(S(=O)(=O)N4CCN(C)CC4)ccc3OCC)nc12", "note": "[Sildenafil]", "relative cell number": "85 ± 15"}
{"compound": "O=C1CCC(N2C(=O)c3ccccc3C2=O)C(=O)N1", "note": "(stereo not drawn) [Thalidomide]", "relative cell number": "74.8 ± 24"}
{"compound": "CC(C)(C(=O)NCC(F)(F)C(F)(F)F)C(=O)N[C@@H]1C(=O)Nc2ccccc2-c2ccccc21", "relative cell number": "122 ± 30"}
{"compound": "CC[C@@]1(O)C(=O)OCc2c1cc1n(c2=O)Cc2cc3c(CN(C)C)c(O)ccc3nc2-1", "note": "[Topotecan]", "relative cell number": "26 ± 0.82"}
